Ki data for 21 compounds are collected here from US9758538B2, “Pyrimidine derivatives” (PFIZER INC., priority 2015, dated 2017).

Structures are written as SMILES.

truncated PI3Kα (p110α/iSH2 p85α), PI3KA_Act, sequence (P42336 whole entry, the tested form may be a part): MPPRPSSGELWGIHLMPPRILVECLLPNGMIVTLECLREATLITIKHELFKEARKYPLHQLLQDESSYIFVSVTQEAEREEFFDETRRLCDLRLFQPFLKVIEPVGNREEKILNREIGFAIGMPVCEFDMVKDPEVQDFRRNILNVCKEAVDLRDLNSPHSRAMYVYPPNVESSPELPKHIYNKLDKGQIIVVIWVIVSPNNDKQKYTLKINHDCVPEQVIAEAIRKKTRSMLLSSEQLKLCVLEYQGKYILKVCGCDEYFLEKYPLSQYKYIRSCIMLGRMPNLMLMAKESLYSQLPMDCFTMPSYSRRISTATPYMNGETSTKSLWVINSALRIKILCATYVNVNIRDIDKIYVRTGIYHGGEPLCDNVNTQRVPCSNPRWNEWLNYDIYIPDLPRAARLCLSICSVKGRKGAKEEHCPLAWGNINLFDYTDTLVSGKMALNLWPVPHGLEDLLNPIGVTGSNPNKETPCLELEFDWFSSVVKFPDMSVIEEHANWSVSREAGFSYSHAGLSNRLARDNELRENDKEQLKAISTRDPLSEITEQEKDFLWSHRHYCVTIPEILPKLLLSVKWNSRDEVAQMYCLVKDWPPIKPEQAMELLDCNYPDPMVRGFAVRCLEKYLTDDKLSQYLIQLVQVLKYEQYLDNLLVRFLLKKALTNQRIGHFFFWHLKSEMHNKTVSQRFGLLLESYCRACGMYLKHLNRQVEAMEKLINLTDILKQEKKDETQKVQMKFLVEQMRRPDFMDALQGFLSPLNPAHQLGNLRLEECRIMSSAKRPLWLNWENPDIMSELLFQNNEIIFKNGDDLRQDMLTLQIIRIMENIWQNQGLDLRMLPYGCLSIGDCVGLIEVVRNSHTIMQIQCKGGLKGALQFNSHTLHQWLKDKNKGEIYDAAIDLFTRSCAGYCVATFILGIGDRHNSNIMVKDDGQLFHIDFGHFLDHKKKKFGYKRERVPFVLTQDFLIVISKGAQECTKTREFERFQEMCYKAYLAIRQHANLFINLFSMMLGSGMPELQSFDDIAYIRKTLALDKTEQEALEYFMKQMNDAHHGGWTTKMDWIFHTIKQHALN

The assay concerns the target truncated PI3Kα (p110α/iSH2 p85α), PI3KA_Act (Homo sapiens (Human), UniProt P42336). Kind of assay: PI3Kα biochemical kinase assay, fluorescence polarization format (PI3KA_Act). The settings on record: 0.5 nM p110α/iSH2 p85, 1 mM ATP, 30 μM PIP2, 15-min preincubation; Morrison equation fit; read-out: PI3KA_Act Ki. On the procedure: Enzyme Production for Biochemical Assay: p110α-iSH2 p85α Complex (Full Length p110α and p85α iSH2)(“PI3KA Act”)
Gene encoding p110α subunit was subcloned into polyhedrine promoter while gene encoding p85α niSH2 domains was subcloned into p10 promoter. […] Recombinant baculovirus was generated using Bac-to-Bac protocol (Life Technologies, Carlsbad, Calif.). Large scale expression was conducted in Sf21 (Life Technologies, Carlsbad, Calif.) cells at a multiplicity of infection (“MOI”)=1 for 48 hours. Cells were lyzed in 50 mM Tris pH 8.0, 250 mM NaCl, 5% glycerol, 0.25 mM TCEP, and 20 mM imidazole. The p110α-niSH2 p85α complex was purified from clarified supernatant using Immobilized Metalo Affinity Chromatography (“IMAC”). The protein was eluted from the column using 50 mM Tris pH 8.0, 200 mM NaCl, 0.25 mM TCEP, and 200 mM imidazole. Following elution p110α-niSH2 p85α complex was dialyzed against 4 liters of 50 mM Tris pH 8.0, 200 mM NaCl, 0.25 mM TCEP, and 40 mM imidazole in the presence of PreScission Protease (1:70 molar ratio of Protease to Protein) and TEV protease (1:40 molar ratio protease to protein) for 16 hours at 4° C. The protein was further purified using reverse IMAC to remove cleaved histidine tag and contaminants captured during initial IMAC purification. The mixture of p110α-iSH2 p85α complex and cleaved nSH2 was recovered in reverse IMAC 40 mM imidazole flow through and 60 mM imidazole wash fractions. Those fractions were pulled together and loaded on Superdex 200 26/60 SEC column equilibrated in 25 mM Tris, pH 8.0, 100 mM NaCl, 2% glycerol, and 2 mM TCEP.
The enzymatic reactions were conducted in 50 μL volumes in 96-well plates. […] The reactions were incubated for 30 min at room temperature, stopped with EDTA pH 8 (10 mM final concentration). […] The plate was shaken for 30 minutes and fluorescence polarization values were measured on an LJL Analyst HT plate reader (Molecular Devices, Sunnyvale, Calif.).
(In general: Fluorescence polarisation rises when a labelled molecule tumbles more slowly, as on binding a larger partner.)
With `CN(c1cc(-c2cnc(N)nc2)nc(N2CCOCC2)n1)C1(CO)CCN(C(=O)OC(C)(C)C)C1` (single isomer, unassigned) [Example 26, tert-butyl 3-{[2′-amino-2-(morpholin-4-yl)-4,5′-bipyrimidin-6-yl](methyl)amino}-3-(hydroxymethyl)pyrrolidine-1-carboxylate], the Ki – broadly, the dissociation constant of the complex between target and ligand, obtained from inhibition or displacement – is under 0.018 nM. Turning to `C[C@H]1COCCN1c1nc(N[C@@]2(CO)CCN(C(=O)C3COC3)C2)cc(-c2cnc(N)nc2)n1` [Example 104, [(3S)-3-({2′-amino-2-[(3S)-3-methylmorpholin-4-yl]-4,5′-bipyrimidin-6-yl}amino)-3-(hydroxymethyl)pyrrolidin-1-yl](oxetan-3-yl)methanone], the Ki was 0.674 nM. With `Nc1ncc(-c2cc(N[C@@]3(CO)CCN(C(=O)c4ncc[nH]4)C3)nc(N3CCOCC3)n2)cn1` [Example 86, [(3S)-3-{[2′-amino-2-(morpholin-4-yl)-4,5′-bipyrimidin-6-yl]amino}-3-(hydroxymethyl)pyrrolidin-1-yl](1H-imidazol-2-yl)methanone], the Ki was 0.026 nM. As to `CC(C)[C@@H](N)C(=O)N1CC[C@](CO)(Nc2cc(-c3cnc(N)nc3)nc(N3CCOCC3)n2)C1` [Example 50, (2R)-2-amino-1-[(3S)-3-{[2′-amino-2-(morpholin-4-yl)-4,5′-bipyrimidin-6-yl]amino}-3-(hydroxymethyl)pyrrolidin-1-yl]-3-methylbutan-1-one], the Ki stood at 0.137 nM.

For the compound `CCOC(=O)N1CC[C@@](CC)(Nc2cc(-c3cnc(N)nc3)nc(N3CCOCC3)n2)C1` [Example 95, ethyl (3R)-3-{[2′-amino-2-(morpholin-4-yl)-4,5′-bipyrimidin-6-yl]amino}-3-ethylpyrrolidine-1-carboxylate], the Ki came out at 0.412 nM. For `Nc1ncc(-c2cc(N[C@@]3(CO)CCN(C(=O)c4ccccn4)C3)nc(N3CCOCC3)n2)cn1` [Example 63, [(3S)-3-{[2′-amino-2-(morpholin-4-yl)-4,5′-bipyrimidin-6-yl]amino}-3-(hydroxymethyl)pyrrolidin-1-yl](pyridin-2-yl)methanone] the value was 0.062 nM. Turning to `Nc1ncc(-c2cc(N[C@@]3(CO)CCN(C(=O)NCC(F)F)C3)nc(N3CCOCC3)n2)cn1` [Example 131, (3S)-3-{[2′-amino-2-(morpholin-4-yl)-4,5′-bipyrimidin-6-yl]amino}-N-(2,2-difluoroethyl)-3-(hydroxymethyl)pyrrolidine-1-carboxamide], the Ki was 0.205 nM.

For the compound `Nc1ncc(-c2cc(N[C@@]3(CO)CCN(C(=O)c4cn[nH]c4)C3)nc(N3CCOCC3)n2)cn1` [Example 90, [(3S)-3-{[2′-amino-2-(morpholin-4-yl)-4,5′-bipyrimidin-6-yl]amino}-3-(hydroxymethyl)pyrrolidin-1-yl](1H-pyrazol-4-yl)methanone], the Ki is under 0.018 nM. As for `Nc1ncc(-c2cc(N[C@@]3(CO)CCN(C(=O)c4ncccn4)C3)nc(N3CCOCC3)n2)cn1` [Example 87, [(3S)-3-{[2′-amino-2-(morpholin-4-yl)-4,5′-bipyrimidin-6-yl]amino}-3-(hydroxymethyl)pyrrolidin-1-yl](pyrimidin-2-yl)methanone], the Ki was determined as 0.085 nM. In the case of `CCOC(=O)N1CC[C@](CO)(Nc2cc(-c3cnc(C)c(F)c3)nc(N3CCOCC3)n2)C1` [Example 129, ethyl (3S)-3-{[6-(5-fluoro-6-methylpyridin-3-yl)-2-(morpholin-4-yl)pyrimidin-4-yl]amino}-3-(hydroxymethyl)pyrrolidine-1-carboxylate], the Ki was 8.29 nM. With `Nc1ncc(-c2cc(N[C@@]3(CO)CCN(CC(F)F)C3)nc(N3CCOCC3)n2)cn1` [Example 67, [(3S)-3-{[2′-amino-2-(morpholin-4-yl)-4,5′-bipyrimidin-6-yl]amino}-1-(2,2-difluoroethyl)pyrrolidin-3-yl]methanol], the Ki worked out at 1.52 nM. With `CCOC(=O)N1CC[C@](CO)(Nc2cc(-c3cnc(C)c(C#N)c3)nc(N3CCOCC3)n2)C1` [Example 128, ethyl (3S)-3-{[6-(5-cyano-6-methylpyridin-3-yl)-2-(morpholin-4-yl)pyrimidin-4-yl]amino}-3-(hydroxymethyl)pyrrolidine-1-carboxylate] the figure was 110 nM. Turning to `Nc1ncc(-c2cc(N[C@@]3(CO)CCN(C(=O)C4CC4)C3)nc(N3CCOCC3)n2)cn1` [Example 92, [(3S)-3-{[2′-amino-2-(morpholin-4-yl)-4,5′-bipyrimidin-6-yl]amino}-3-(hydroxymethyl)pyrrolidin-1-yl](cyclopropyl)methanone], the Ki is under 0.018 nM. As for `CCC(=O)N1CCC[C@](CO)(Nc2nc(N3CCOCC3)nc(-c3cnc(N)nc3)c2F)C1` [Example 146, 1-[(3S)-3-{[2′-amino-5-fluoro-2-(morpholin-4-yl)-4,5′-bipyrimidin-6-yl]amino}-3-(hydroxymethyl)piperidin-1-yl]propan-1-one], the Ki was 0.237 nM. Turning to `CC(C)C(=O)N1CC[C@](C)(Nc2nc(N3CCOCC3)nc(-c3cnc(N)nc3)c2F)C1` [Example 107, 1-[(3S)-3-{[2′-amino-5-fluoro-2-(morpholin-4-yl)-4,5′-bipyrimidin-6-yl]amino}-3-methylpyrrolidin-1-yl]-2-methylpropan-1-one], the Ki came to 0.23 nM.

As to `Nc1ncc(-c2cc(N[C@@]3(CO)CCN(C(=O)N4CCCC4)C3)nc(N3CCOCC3)n2)cn1` [Example 78, [(3S)-3-{[2′-amino-2-(morpholin-4-yl)-4,5′-bipyrimidin-6-yl]amino}-3-(hydroxymethyl)pyrrolidin-1-yl](pyrrolidin-1-yl)methanone], the Ki turned out to be 0.267 nM.

`CC(C)(C)OC(=O)N1CC[C@](CO)(Nc2nc(-c3cnc(N)nc3)nc(N3CCOCC3)n2)C1` [Example 39, tert-butyl (3S)-3-{[4-(2-aminopyrimidin-5-yl)-6-(morpholin-4-yl)-1,3,5-triazin-2-yl]amino}-3-(hydroxymethyl)pyrrolidine-1-carboxylate]: the Ki came to 0.105 nM. Take `Nc1ncc(-c2cc(N[C@@]3(CO)CCN(C(=O)[C@@H](O)c4ccccc4)C3)nc(N3CCOCC3)n2)cn1` [Example 60, (2S)-1-[(3S)-3-{[2′-amino-2-(morpholin-4-yl)-4,5′-bipyrimidin-6-yl]amino}-3-(hydroxymethyl)pyrrolidin-1-yl]-2-hydroxy-2-phenylethanone]: the Ki was determined as 12.7 nM. With `CC(O)[C@]1(Nc2cc(-c3cnc(N)nc3)nc(N3CCOCC3)n2)CCN(C(=O)OC(C)(C)C)C1` (stereo partly drawn) [Example 10, tert-butyl (3S)-3-{[2′-amino-2-(morpholin-4-yl)-4,5′-bipyrimidin-6-yl]amino}-3-(1-hydroxyethyl)pyrrolidine-1-carboxylate], the Ki is 1.62 nM. As to `Nc1ncc(-c2cc(NC3(CF)CCN(C(=O)OCc4ccccc4)C3)nc(N3CCOCC3)n2)cn1` (stereo not drawn) [Example 105, benzyl 3-{[2′-amino-2-(morpholin-4-yl)-4,5′-bipyrimidin-6-yl]amino}-3-(fluoromethyl)pyrrolidine-1-carboxylate], the Ki came out at 0.489 nM. Regarding `CC(C)(C)OC(=O)N1CC[C@](C)(Nc2nc(N3CCOCC3)nc(-c3cnc(N)nc3)c2F)C1` [Example 108, tert-butyl (3S)-3-{[2′-amino-5-fluoro-2-(morpholin-4-yl)-4,5′-bipyrimidin-6-yl]amino}-3-methylpyrrolidine-1-carboxylate], the Ki was determined as 0.036 nM.
